# Patent publication US9598410B2, “Substituted 4,5,6,7-tetrahydro-1H-pyrazolo[4,3-C]pyridines, their use as medicament, and pharmaceutical preparations comprising them” (SANOFI, priority 2011, dated 2017)
# Molecular target: Human TASK-1 channels (Homo sapiens (Human), UniProt O14649)
# Assay: Activity on the TASK-1 channel in Xenopus oocytes (two-microelectrode voltage clamp)
# Format: cell-based
# Settings: percentage inhibition of TASK-1 control current
# Description: Human TASK-1 channels were expressed in Xenopus oocytes. […] Subsequently, TASK-1-encoding RNA synthesized in vitro was injected into oocytes. […] Oocytes were continuously superfused with ND96 buffer containing: NaCl 96 mM, KCl 2 mM, CaCl2 1.8 mM, MgCl2 1 mM, HEPES 5 mM (pH adjusted to 7.4 with NaOH). All experiments were performed at room temperature.
# IC50 values were obtained by fitting the data to the general dose-response equation.
# Human TASK-1 channels, sequence (O14649 whole entry): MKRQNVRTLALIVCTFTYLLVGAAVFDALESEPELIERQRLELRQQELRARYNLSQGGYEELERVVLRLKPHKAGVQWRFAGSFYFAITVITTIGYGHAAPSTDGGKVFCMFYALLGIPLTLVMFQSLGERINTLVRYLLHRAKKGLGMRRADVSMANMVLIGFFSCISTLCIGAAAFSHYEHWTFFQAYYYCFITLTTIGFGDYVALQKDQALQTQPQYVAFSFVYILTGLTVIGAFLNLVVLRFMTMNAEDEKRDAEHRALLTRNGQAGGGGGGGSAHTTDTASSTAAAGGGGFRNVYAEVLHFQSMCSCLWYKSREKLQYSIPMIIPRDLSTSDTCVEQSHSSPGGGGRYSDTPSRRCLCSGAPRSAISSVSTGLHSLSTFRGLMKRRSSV
structure (smiles),measurement,value
"COc1ccnc(Cn2nc(-c3cccc(C(F)(F)F)c3)c3c2CCN(C(C)=O)C3)c1 [Example 6q, 1-[1-(4-Methoxy-pyridin-2-ylmethyl)-3-(3-trifluoromethyl-phenyl)-1,4,6,7-tetrahydro-pyrazolo[4,3-c]pyridin-5-yl]-ethanone]",Inhibition (%) at 5 μM,70%
